The numbers were not newly measured in US20210236427A1, “Development of Lipid Matrix Granules with Incorporation of Polysaccharides for Effective Delivery of an Antimicrobial Essential Oil” (University of Manitoba, priority 2018, published 2021), which cites them from elsewhere.

The subject of the data set is Brachyspira hyodysenteriae. Conditions: in vitro; Vande Maele et al., 2016.

Turning to `CCCCCCCCCCCC(=O)O` [lauric acid], the “minimum inhibitory concentration (MIC)” value was “less than 1.5 mM”.
